Consider 13 molecules from patent publication US20260078103A1, “ISOQUINOLONES AS PI3K INHIBITORS” (OnKure, Inc., priority 2022, published 2026).

Common to all, as to format: cell-based
Experiment [1] concerns T47D cells expressing mutant PI3Ka (H1047R). As to the kind of experiment: In vitro cell proliferation, T47D cells (CellTiter-Glo). The settings on record: inhibition of proliferation, read-out: Avg T-47D EC50. The gist of the method: (§1)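 Proliferation was read by CellTiter-Glo luminescence after 72 h of exposure to 10-point compound dilutions at 37 °C and 5% CO2. T47D (RPMI, 10% FBS, insulin 0.2 units/mL) and SKBR3 (McCoys 5a, 10% FBS) cells were seeded at 1,500 cells/well. EC50 was fitted from inhibition relative to DMSO and 10 uM Alpelisib.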

Experiment [2] deals with phosphorylation of AKT (pAKT) in T47D cells expressing mutant PI3Ka (H1047R). As to the kind of experiment: In vitro cell pAKT (Ser473) HTRF, T47D cells. The settings on record: cellular pAKT, T47D cells, mutant PI3Ka (H1047R), 6 hours, read-out: Avg T-47D IC50. The gist of the method:
(§2)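 pAKT (Ser473) was quantified by HTRF in lysates from cells exposed 6 h at 37 °C to 10-point compound series, with T47D in insulin-supplemented RPMI/10% FBS and SKBR3 in McCoy's 5a/10% FBS. Controls: 0.1% DMSO (high) and 10 uM alpelisib (low). IC50 from sigmoidal curve fitting.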

Experiment [3] has as its system phosphorylation of AKT (pAKT) in SKBR3 cells express WT PI3Ka. As to the kind of experiment: In vitro cell pAKT (Ser473) HTRF, SKBR3 cells. The note with it: cellular pAKT. The gist of the method: as §2
Experiment [4] relates to SKBR3 cells express WT PI3Ka. As to the kind of experiment: In vitro cell proliferation, SKBR3 cells (CellTiter-Glo). The settings on record: inhibition of proliferation. The gist of the method: as §1

Each structure is given as a SMILES string. Like-named read-outs stand apart in the source and are kept apart here.

For `C[C@@H](Nc1cccc(F)c1C(=O)O)c1cc(F)cc2c(=O)n(C)c(C3C[C@@H]3C(F)F)cc12` (single isomer, unassigned) [Example 476], the values for the EC50 in experiment [1] (72 hours) and in experiment [4] (72 hours) were 500 to 2000 nM and more than 15000 nM, respectively. For the same molecule, the results for the IC50 in experiment [2] and in experiment [3] (6 hours) were 1 to 500 nM and more than 15000 nM, respectively.
In the case of `C[C@@H](Nc1cccc(F)c1C(=O)O)c1cc(F)cc2c(=O)n(C)c(C3CC3(F)F)cc12` (single isomer, unassigned) [Example 479], the EC50 is 2000 to 15000 nM in experiment [1] (72 hours) and more than 15000 nM in experiment [4] (Homo sapiens, SK-BR-3, 72 h). Also, the concentration for half-maximal inhibition (IC50) in experiment [2] is 2000 to 15000 nM; in experiment [3] (Homo sapiens, SK-BR-3, 6 h) it was more than 15000 nM.
On to `C[C@@H](Nc1cccc(F)c1C(=O)O)c1cc(F)cc2c(=O)n(C)c(C3CC3(F)F)cc12` (single isomer, unassigned) [Example 480], for which the half-maximal effective concentration (EC50) is 500 to 2000 nM in experiment [1] (72 hours) and more than 15000 nM in experiment [4] (72 hours). Further, the half-maximal inhibitory concentration (IC50) in experiment [2] is 1 to 500 nM; in experiment [3] (6 hours) it was more than 15000 nM.
For the molecule `C[C@@H](Nc1ccccc1C(=O)O)c1cc(F)cc2c(=O)n(C)c(C3CC3(F)F)cc12` (single isomer, unassigned) [Example 481], the EC50 is 500 to 2000 nM in experiment [1] (72 hours) and more than 15000 nM in experiment [4] (Homo sapiens, SK-BR-3, 72 h). Further, the IC50 was 500 to 2000 nM in experiment [2] and more than 15000 nM in experiment [3] (Homo sapiens, SK-BR-3, 6 h).
In the case of `C[C@@H](Nc1ccccc1C(=O)O)c1cc(F)cc2c(=O)n(C)c(C3CC3(F)F)cc12` (single isomer, unassigned) [Example 482], the concentration for a half-maximal effect (EC50) was 1 to 500 nM in experiment [1] (72 hours) and more than 15000 nM in experiment [4] (72 hours). Further, the IC50 was 1 to 500 nM in experiment [2] and more than 15000 nM in experiment [3] (6 hours).
On to `Cc1cc(C(C)Nc2ccccc2C(=O)O)c2cc(-c3ccc(N4CCOCC4)nc3)n(C)c(=O)c2c1` (single isomer, unassigned) [Example 486], for which the results for the EC50 in experiment [1] (72 hours) and in experiment [4] (72 hours) were 2000 to 15000 nM and more than 15000 nM, respectively. In addition, the results for the IC50 in experiment [2] and in experiment [3] (6 hours) were 2000 to 15000 nM and more than 15000 nM, respectively.
Take `Cc1cc(C(C)Nc2ccccc2C(=O)O)c2cc(-c3ccc(N4CCOCC4)nc3)n(C)c(=O)c2c1` (single isomer, unassigned) [Example 487]: the EC50 in experiment [1] (72 hours) lay in the range of 1 to 500 nM; in experiment [4] (72 hours), 2000 to 15000 nM. Also, the values for the IC50 in experiment [2] and in experiment [3] (6 hours) were 1 to 500 nM and 2000 to 15000 nM, respectively.
For `C[C@@H](Nc1ccccc1C(=O)O)c1cc(F)cc2c(=O)n(C)c(C3C[C@@H]3C(F)F)cc12` (single isomer, unassigned) [Example 488], the 50% effective concentration (EC50) is 1 to 500 nM in experiment [1] (Homo sapiens, T47D, 72 h) and more than 15000 nM in experiment [4] (Homo sapiens, SK-BR-3, 72 h). Also, the IC50 in experiment [2] (Homo sapiens, T47D, 6 h) was 1 to 500 nM; in experiment [3] (Homo sapiens, SK-BR-3, 6 h) it was more than 15000 nM.
In the case of `C[C@@H](Nc1ccccc1C(=O)O)c1cc(F)cc2c(=O)n(C)c(C3C[C@@H]3C(F)F)cc12` (single isomer, unassigned) [Example 489], the values for the concentration for a half-maximal effect (EC50) in experiment [1] (72 hours) and in experiment [4] (72 hours) were 1 to 500 nM and more than 15000 nM, respectively. For the same molecule, the values for the IC50 in experiment [2] and in experiment [3] (6 hours) were 1 to 500 nM and more than 15000 nM, respectively.
Regarding `C[C@@H](Nc1ccccc1C(=O)O)c1cc(F)cc2c(=O)n(C)c(C3C[C@@H]3CF)cc12` (single isomer, unassigned) [Example 493], the EC50 in experiment [1] (Homo sapiens, T47D, 72 h) is 1 to 500 nM; in experiment [4] (Homo sapiens, SK-BR-3, 72 h), more than 15000 nM. Also, the IC50 in experiment [2] (Homo sapiens, T47D, 6 h) was 1 to 500 nM; in experiment [3] (Homo sapiens, SK-BR-3, 6 h) it was more than 15000 nM.
As to `C[C@@H](Nc1ccccc1C(=O)O)c1cc(F)cc2c(=O)n(C)c(C3C[C@@H]3CF)cc12` (single isomer, unassigned) [Example 494], the figures for the EC50 in experiment [1] (72 hours) and in experiment [4] (72 hours) were 1 to 500 nM and more than 15000 nM, respectively. Moreover, the figures for the IC50 in experiment [2] and in experiment [3] (6 hours) were 1 to 500 nM and more than 15000 nM, respectively.
In the case of `CC(Nc1ccccc1C(=O)O)c1cc(F)cc2c(=O)n(C)c(N3C4CCC3CN(CC(F)(F)F)C4)c(F)c12` (single isomer, unassigned) [Example 566], the EC50 in experiment [1] (72 hours) was in the range of 2000 to 15000 nM; in experiment [4] (Homo sapiens, SK-BR-3, 72 h) it was 2000 to 15000 nM. In addition, the IC50 in experiment [2] and in experiment [3] (6 hours) was more than 15000 nM throughout.
`CC(Nc1ccccc1C(=O)O)c1cc(F)cc2c(=O)n(C)c(N3C4CCC3CN(CC(F)(F)F)C4)c(F)c12` (single isomer, unassigned) [Example 567]: the EC50 in experiment [1] (72 hours) lay in the range of 1 to 500 nM; in experiment [4] (72 hours) it was 2000 to 15000 nM. Moreover, the IC50 in experiment [2] lay within 1 to 500 nM; in experiment [3] (6 hours) it was 2000 to 15000 nM.
